Common to all, as to type: cell-based, human
The test system of one test is HT29. The experiment in a line: SRB colorimetric cytotoxicity assay, HT29. Particulars: Homo sapiens, HT-29, 72 h, 72 hours treatment, colorectal adenocarcinoma. The source says: (§1) The aim of this assay is to evaluate the in vitro cytostatic (ability to delay or arrest tumor cell growth) or cytotoxic (ability to kill tumor cells) activity of the samples being tested.
(§2) A colorimetric assay, using sulforhodamine B (SRB) reaction has been adapted to provide a quantitative measurement of cell growth and viability (following the technique described by V. Vichai and K. Kirtikara (2006) Nature Protoc. 1, 1112-1116.)
(§3) This form of assay employs 96-well cell culture microplates. All the cell lines used in this study were obtained from the American Type Culture Collection (ATCC), unless otherwise indicated, and derive from different types of human cancer.
(§4) Cells were maintained in Dulbecco's Modified Eagle Medium (DMEM) (for A549, HT-29 and MDA-MB-231) or RPMI (for PSN-1) supplemented with 10% Fetal Bovine Serum (FBS), 2 mM L-glutamine, 100 U/mL penicillin and 100 U/mL streptomycin at 37° C., 5% CO2 and 98% humidity. For the experiments, cells were harvested from subconfluent cultures using trypsinization and resuspended in fresh medium before counting and plating.
(§5) Cells were seeded in 96 well microtiter plates, at 5×10^3 cells per well in aliquots of 150 μL, and allowed to attach to the plate surface for 18 hours (overnight) in drug free medium. After that, one control (untreated) plate of each cell line was fixed (as described below) and used for time zero reference value. […] After 72 hours treatment, the antitumor effect was measured by using the SRB methodology: Briefly, cells were washed twice with PBS, fixed for 15 min in 1% glutaraldehyde solution at room temperature, rinsed twice in PBS, and stained in 0.4% SRB solution for 30 min at room temperature. Cells were then rinsed several times with 1% acetic acid solution and air-dried at room temperature. SRB was then extracted in 10 mM trizma base solution and the absorbance measured in an automated spectrophotometric plate reader at 490 nm. Effects on cell growth and survival were estimated by applying the NCI algorithm (Boyd M R and Pauli K D. Drug Dev Res. 1995, 34, 91-104).
(§6) Using the mean±SD of triplicates, a dose-response curve was automatically generated using nonlinear regression analysis to a 4-parameter logistic curve. Three reference parameters were calculated (NCI algorithm) by automatic interpolation: GI50=compound concentration that produces 50% cell growth inhibition, as compared to control cultures; TGI=total cell growth inhibition (cytostatic effect), as compared to control cultures, and LC50=compound concentration that produces 50% net cell killing (cytotoxic effect).

For another test, the system named is A549. Description: SRB colorimetric cytotoxicity assay, A549. Particulars: Homo sapiens, A549, 72 h, 72 hours treatment, lung carcinoma (NSCLC).
Source text: as §1, §2, §3, §4, §5, §6

For a further test, the system named is MDA-MB-231. Description: SRB colorimetric cytotoxicity assay, MDA-MB-231. Particulars: Homo sapiens, MDA-MB-231, 72 h, 72 hours treatment, breast adenocarcinoma.
Source text: as §1, §2, §3, §4, §5, §6

Another test concerns PSN-1. The experiment in a line: SRB colorimetric cytotoxicity assay, PSN-1. Particulars: Homo sapiens, PSN1, 72 h, 72 hours treatment, pancreatic adenocarcinoma.
Source text: as §1, §2, §3, §4, §5, §6

As a reminder, the GI50 is the concentration at which growth is held to half of that of the control. The low end stands for greater sensitivity of the cells, the high end for lower sensitivity of the cells. As for `CCC[C@@H](NC(=O)[C@]1(C)CSC(C(C)=O)=N1)c1cccc(=O)o1` [Compound 127], the concentration for 50% growth inhibition (GI50) in the test with HT29 was 14000 nM; with A549, more than 29700 nM; in the test on MDA-MB-231, 8620 nM; with PSN-1, 18700 nM.

Take `C=CCOc1cc([C@@H](CCC)NC(=O)[C@]2(C)CSC(/C(C)=N/O[C@H]3O[C@H](CO)[C@@H](O)[C@H](O)[C@@H]3O)=N2)oc(=O)c1` [Compound 112]: the GI50 worked out at 1110 nM in the test on HT29, 4040 nM with A549, 2110 nM in the test with MDA-MB-231 and 1230 nM with PSN-1.

With `C=Cc1cc([C@@H](CCC)NC(=O)[C@]2(C)CSC(C(C)=O)=N2)oc(=O)c1` [Compound 68], the GI50 with HT29 came to 9100 nM; in the test with A549, 11000 nM; with MDA-MB-231, 6620 nM; with PSN-1, 4690 nM.

As for `COc1cc([C@@H](CC(C)C)NC(=O)[C@]2(C)CSC(/C(C)=N\O)=N2)oc(=O)c1` [Compound 69a], the GI50 in the test on HT29 was 3790 nM; in the test on A549, 5060 nM; in the test on MDA-MB-231 it was 4550 nM; in the test on PSN-1 it was 6320 nM.

Regarding `CCC[C@@H](NC(=O)[C@]1(C)CSC(/C(C)=N\O)=N1)c1cc(OCC2CC2)cc(=O)o1` [Compound 76a], the GI50 in the test with HT29 came to 4.27 nM; in the test with A549, 3.8 nM; in the test on MDA-MB-231, 4.51 nM; in the test with PSN-1, 4.51 nM.

Regarding `CCC[C@@H](NC(=O)[C@]1(C)CSC(/C(C)=N/CCCNC(=O)OC(C)(C)C)=N1)c1cc(OCC2CC2)cc(=O)o1` [Compound 116], the GI50 came to 249 nM in the test on HT29, 302 nM in the test on A549, 195 nM in the test with MDA-MB-231 and 302 nM in the test on PSN-1.

With `C=CCOc1cc([C@@H](CCC)NC(=O)[C@]2(C)CSC(C(C)=O)=N2)oc(=O)c1` [Compound 63], the GI50 in the test with HT29 was found to be 510 nM; in the test with A549, 815 nM; in the test on MDA-MB-231, 484 nM; in the test with PSN-1, 408 nM.

`CCC[C@@H](NC(=O)[C@]1(C)CSC(/C(C)=N/OC(=O)COCCOCCOC)=N1)c1cc(OC)cc(=O)o1` [Compound 95]: the GI50 with HT29 amounted to 40.6 nM; in the test with A549 it was 20.3 nM; with MDA-MB-231, 44.3 nM; in the test with PSN-1, 33.2 nM.

As to `C=CCOc1cc([C@@H](CCC)NC(=O)[C@]2(C)CSC(/C(C)=N/O)=N2)oc(=O)c1` [Compound 74], the 50% growth inhibitory concentration (GI50) in the test with HT29 was 2.94 nM; in the test on A549, 4.17 nM; with MDA-MB-231, 4.91 nM; in the test with PSN-1, 3.19 nM.

For the compound `C=CCOc1cc([C@@H](CCC)NC(=O)[C@]2(C)CSC(/C(C)=N/OCCOCCOCCOCC)=N2)oc(=O)c1` [Compound 144], the concentration for 50% growth inhibition (GI50) came to 65.2 nM with HT29, 72.2 nM in the test with A549, 162 nM with MDA-MB-231 and 125 nM with PSN-1.

For the compound `CCC[C@@H](NC(=O)[C@]1(C)CSC(/C(C)=N/OCCCCOP(=O)(O)O)=N1)c1cc(OCC2CC2)cc(=O)o1` [Compound 192], the GI50 with HT29 is 7.15 nM; in the test with A549, 9.07 nM; in the test with MDA-MB-231, 16.4 nM; with PSN-1, 27.9 nM.

For the compound `CCC[C@@H](NC(=O)[C@@]1(C)CSC(/C(C)=N/O)=N1)c1cc(OC)cc(=O)o1` [Compound 135], the concentration for 50% growth inhibition (GI50) in the test on HT29 was 1260 nM; in the test with A549, 2460 nM; in the test with MDA-MB-231, 2330 nM; in the test with PSN-1, 1260 nM.

For the compound `C=CCOc1cc([C@@H](CCC)NC(=O)[C@]2(C)CSC(/C(C)=N\O)=N2)oc(=O)c1` [Compound 74a], the concentration for 50% growth inhibition (GI50) with HT29 turned out to be 7.61 nM; in the test with A549, 8.1 nM; with MDA-MB-231 it was 9.82 nM; in the test on PSN-1, 12.5 nM.

Consider `C=CCOc1cc([C@@H](CCC)NC(=O)[C@]2(C)CSC(C(C)=NOCCCN3CCN(C)CC3)=N2)oc(=O)c1` [Compound 163], for which the GI50 in the test with HT29 was 15.6 nM; with A549, 16.1 nM; in the test on MDA-MB-231, 16.6 nM; with PSN-1, 16.4 nM.

For `CCC[C@@H](NC(=O)[C@]1(C)CSC(/C(C)=N/OCCCNC(=O)OC(C)(C)C)=N1)c1cc(OCC2CC2)cc(=O)o1` [Compound 157], the GI50 in the test with HT29 stood at 5.02 nM; with A549, 5.37 nM; in the test on MDA-MB-231, 5.37 nM; in the test with PSN-1, 5.54 nM.

In the case of `C=CCOc1cc([C@@H](CCC)NC(=O)[C@]2(C)CSC(C(C)(OCC)OCC)=N2)oc(=O)c1` [Compound 50], the GI50 in the test with HT29 was 514 nM; with A549, 643 nM; in the test on MDA-MB-231, 536 nM; with PSN-1, 814 nM.

For the compound `CCC[C@@H](NC(=O)[C@]1(C)CSC(/C(C)=N/O[C@H]2O[C@H](CO)[C@@H](O)[C@@H]3OC(C)(C)O[C@H]23)=N1)c1cc(OCC2CC2)cc(=O)o1` [Compound 180], the 50% growth inhibitory concentration (GI50) stood at 369 nM in the test with HT29, 593 nM with A549, 417 nM in the test with MDA-MB-231 and 529 nM with PSN-1.

Take `C=CCOc1cc([C@@H](CCC)NC(=O)[C@]2(C)CSC(/C(C)=N/O)=N2)[nH]c(=O)c1` [Compound 190]: the 50% growth inhibitory concentration (GI50) with HT29 came to 244 nM; in the test with A549, 590 nM; with MDA-MB-231 it was 239 nM; with PSN-1, 344 nM.

For `CCC[C@@H](NC(=O)[C@]1(C)CSC(/C(C)=N/OCCCCO)=N1)c1cc(OCC2CC2)cc(=O)o1` [Compound 149], the 50% growth inhibitory concentration (GI50) was 6.28 nM in the test with HT29, 6.69 nM with A549, 8.91 nM in the test on MDA-MB-231 and 13.6 nM in the test with PSN-1.

On to `C=CCOc1cc([C@@H](CCC)NC(=O)[C@]2(C)CSC(/C(C)=N/OP(=O)(OCc3ccccc3)OCc3ccccc3)=N2)oc(=O)c1` [Compound 172], for which the concentration for 50% growth inhibition (GI50) was found to be 56.9 nM in the test with HT29, 80.9 nM with A549, 108 nM in the test on MDA-MB-231 and 100 nM in the test on PSN-1.

Turning to `CCCCCCCOc1cc([C@@H](CCC)NC(=O)[C@]2(C)CSC(/C(C)=N/O)=N2)oc(=O)c1` [Compound 72], the concentration for 50% growth inhibition (GI50) came to 30.1 nM in the test on HT29, 25.8 nM with A549, 30.1 nM in the test on MDA-MB-231 and 21.5 nM in the test with PSN-1.

For `C=CCO/N=C(\C)C1=N[C@](C)(C(=O)N[C@H](CCC)c2cc(OC)cc(=O)o2)CS1` [Compound 93], the GI50 came to 23.5 nM in the test with HT29, 21.4 nM in the test on A549, 38 nM in the test with MDA-MB-231 and 28.5 nM in the test with PSN-1.

With `C=CCOc1cc([C@@H](CCC)NC(=O)[C@@]2(C)CSC(/C(C)=N/O)=N2)oc(=O)c1` [Compound 136], the concentration for 50% growth inhibition (GI50) in the test with HT29 is 85.9 nM; in the test with A549, 71.2 nM; in the test with MDA-MB-231, 78.5 nM; in the test with PSN-1, 81 nM.

Take `CCC[C@@H](NC(=O)[C@@]1(C)CSC(C(C)(OCC)OCC)=N1)c1cc(OCC2CC2)cc(=O)o1` [Compound 131]: the GI50 with HT29 was 196 nM; in the test with A549, 208 nM; in the test with MDA-MB-231, 333 nM; in the test with PSN-1 it was 312 nM.

On to `CCC[C@@H](NC(=O)[C@]1(C)CSC(/C(C)=N/O)=N1)c1cc(C)cc(=O)o1` [Compound 78], for which the concentration for 50% growth inhibition (GI50) with HT29 stood at 43.8 nM; in the test on A549, 24.9 nM; in the test on MDA-MB-231, 43.8 nM; in the test with PSN-1 it was 32.8 nM.

`CCC[C@@H](NC(=O)[C@]1(C)CSC(/C(C)=N/OCCC2COC(C)(C)O2)=N1)c1cc(OCC2CC2)cc(=O)o1` (some centres unmarked) [Compound 159]: the concentration for 50% growth inhibition (GI50) in the test on HT29 worked out at 63.7 nM; in the test on A549, 49.1 nM; with MDA-MB-231 it was 67.3 nM; in the test on PSN-1 it was 50.9 nM.

Values taken from patent US12215100B2, “Anticancer compounds” (Pharma Mar, S.A., priority 2018, dated 2025).
